# In paper PMC6610884 (Journal of medicinal chemistry, 2018):
# pEC50: −log10 of the molar value. Several values for one entry are separate records, joined by “and”; a condition that tells them apart may be missing. Equal entries are not always repeated. Where two headings read alike, the source gives them in different places.
# Tests used:
# [1] = test system: P. berghei blood stages; details: Pb-infected mice, single oral 50 mg/kg dose 1 day PI, compared to untreated animals
# [2] = test system: P. berghei liver stages; type: in vivo, Plasmodium berghei; details: liver stage model, mice
# [3] = test system: Plasmodium cynomolgi; details: rhesus monkeys; cited from earlier work
# [4] = test system: P. falciparum TM90-C2B; details: RI = EC50(TM90-C2B)/EC50(W2); cited from earlier work
# [5] = test system: P. berghei liver stages; details: read-out: liver stage activity; cited from earlier work
# [6] = single dose 50 mg/kg subcutaneous
smiles,measurement,setting,value
"COC(=O)c1c[nH]c2cc(CN3CCN(c4ccc(C(F)(F)F)cc4)CC3)c(OC)cc2c1=O [8ab, Methyl 6-Methoxy-4-oxo-7-((4-(4-(trifluoromethyl)phenyl)-piperazin-1-yl)methyl)-1,4-dihydroquinoline-3-carboxylate]",% inhibition day 6 PI,[1],completely inhibited parasite growth
"Cc1[nH]c2cc(CN3CCN(c4ccc(F)cc4)CC3)ccc2c(=O)c1Br [8an, 3-Bromo-7-((4-(4-Fluorophenyl)piperazin-1-yl)methyl)-2-methylquinolin-4(1H)-one]",% inhibition day 6 PI,[1],completely inhibited parasite growth
"COC(=O)c1c[nH]c2cc(CN3CCN(c4ccccc4)CC3)ccc2c1=O [8j, Methyl 4-Oxo-7-((4-phenylpiperazin-1-yl)methyl)-1,4-dihydroquinoline-3-carboxylate]",no. of cures,[2]; single dose 25 mg/kg oral,2/5
same,no. of cures,[2]; single dose 50 mg/kg oral,2/5
same,no. of cures,[2]; [6],3/5
same,no. of cures,[2]; single dose 100 mg/kg oral,5/5
"COC(=O)c1c[nH]c2cc(CN3CCN(Cc4ccc(OC)cc4)CC3)ccc2c1=O [8l, Methyl 7-((4-(4-Methoxybenzyl)piperazin-1-yl)methyl)-4-oxo-1,4-dihydroquinoline-3-carboxylate]",no. of cures,[2]; single dose 25 mg/kg oral,0/5
same,no. of cures,[2]; single dose 50 mg/kg oral,0/5
same,no. of cures,[2]; [6],0/5
same,no. of cures,"[2]; single dose 100 mg/kg oral, 100 mg/kg",one of five and 1/5
"COC(=O)c1c[nH]c2cc(CN3CCN(c4ccc(C(F)(F)F)cc4)CC3)ccc2c1=O [8p, Methyl 4-Oxo-7-((4-(4-(trifluoromethyl)phenyl)piperazin-1-yl)-methyl)-1,4-dihydroquinoline-3-carboxylate]",% inhibition day 6 PI,[1],completely inhibited parasite growth
"COC(=O)c1c[nH]c2cc(CN3CCN(c4ccc(C(F)(F)F)cc4)CC3)c(C)cc2c1=O [8v, Methyl 6-Methyl-4-oxo-7-((4-(4-(trifluoromethyl)phenyl)-piperazin-1-yl)methyl)-1,4-dihydroquinoline-3-carboxylate]",% inhibition day 6 PI,[1],completely inhibited parasite growth
CCCCc1cc2c(=O)c(C(=O)OCC)c[nH]c2cc1OCCOc1ccccc1 [compound 1],radical cure (eradication of dormant exoerythrocytic stages),[3],radical cures
"CCCCc1cc2c(=O)c(Br)c(C)[nH]c2cc1OCCOc1ccccc1 [compound 2, 3-bromo-6-butyl-2-methyl-7-(2-phenoxyethoxy)quinolin-4(1H)-one]",resistance index (RI),[4],4.7
same,pEC50,[5],8.67
